PMC4965013, “Open Source Drug Discovery with the Malaria Box Compound Collection for Neglected Diseases and Beyond” (PLoS Pathogens, 2016)
“And” between values parts separate entries of the source, which are not always exact repeats. Identical values can stand only once.

Legend:
P. falciparum = assay: EC50 listed in S2 Table Metabolomics (used to set the concentration tested); format: cell-based; conditions: Plasmodium falciparum; EC50 used for Factor_XEC50 in metabolomics; read-out: EC50_nM
[1] = tested on: P. falciparum 3D7 trophozoites; assay: Metabolomic fingerprint profiling LC-MS; format: cell-based, Plasmodium falciparum; set-up: UDP-D-glucose / ADP-D-glucose: unit not given here; conditions: for Acetyllysine / N-acetyl-L-ornithine / N-carbamoyl-L-aspartate / NADPH / dAMP / dCMP / dTDP / dTMP / dTTP / dihydroorotate / orotate / DLH / DLS/SDL/SID / PD / PEE / PVNF / 3-phosphoglycerate / ADP-D-glucose / ATP / CDP / D-sedoheptulose-1/7-phosphate / FAD / GMP / NAD+ / NADP+ / Octoluse Bisphosphate / Pyroglutamic acid / UDP-D-glucose / UDP-D-glucuronate / UDP-N-acetyl-glucosamine / UDP / UMP / UTP / a-ketoglutarate / citrate/isocitrate / cytidine / dATP / dGMP/AMP / fumarate / glucose-1/6-phosphate / glycerate / guanine / guanosine / hypoxanthine / indole / inosine / nicotinate / ornithine / phosphoenolpyruvate / pyruvate / ribose-phosphate / sarcosine/alanine / sn-glycerol-3-phosphate / succinate/methylmalonic acid / uridine / xanthosine: S2 Table Metabolomics; for Acetyllysine: metabolite Acetyllysine; for N-acetyl-L-ornithine: metabolite N-acetyl-L-ornithine; for N-carbamoyl-L-aspartate: metabolite N-carbamoyl-L-aspartate; for NADPH: metabolite NADPH; for dAMP: metabolite dAMP; for dCMP: metabolite dCMP; for dTDP: metabolite dTDP; for dTMP: metabolite dTMP; for dTTP: metabolite dTTP; for dihydroorotate: metabolite dihydroorotate; for orotate: metabolite orotate; for DLH: peptide DLH; for DLS/SDL/SID: peptide DLS/SDL/SID; for PD: peptide PD; for PEE: peptide PEE; for PVNF: peptide PVNF; for 3-phosphoglycerate: metabolite 3-phosphoglycerate; for ADP-D-glucose: metabolite ADP-D-glucose; for ATP: metabolite ATP; for CDP: metabolite CDP; for CDP / D-sedoheptulose-1/7-phosphate / GMP / Octoluse Bisphosphate / UDP / UMP / UTP / citrate/isocitrate / dGMP/AMP / fumarate / glucose-1/6-phosphate / glycerate / guanine / guanosine / inosine / pyruvate / sarcosine/alanine / succinate/methylmalonic acid / uridine / xanthosine: change in metabolite level after compound treatment; for D-sedoheptulose-1/7-phosphate: metabolite D-sedoheptulose-1/7-phosphate; for FAD: metabolite FAD; for GMP: metabolite GMP; for NAD+: metabolite NAD+; for NADP+: metabolite NADP+; for Octoluse Bisphosphate: metabolite Octoluse Bisphosphate; for Pyroglutamic acid: metabolite Pyroglutamic acid; for UDP-D-glucose: metabolite UDP-D-glucose; for UDP-D-glucuronate: metabolite UDP-D-glucuronate; for UDP-N-acetyl-glucosamine: metabolite UDP-N-acetyl-glucosamine; for UDP: metabolite UDP; for UMP: metabolite UMP; for UTP: metabolite UTP; for a-ketoglutarate: metabolite a-ketoglutarate; for citrate/isocitrate: metabolite citrate/isocitrate; for cytidine: metabolite cytidine; for dATP: metabolite dATP; for dGMP/AMP: metabolite dGMP/AMP; for fumarate: metabolite fumarate; for glucose-1/6-phosphate: metabolite glucose-1/6-phosphate; for glycerate: metabolite glycerate; for guanine: metabolite guanine; for guanosine: metabolite guanosine; for hypoxanthine: metabolite hypoxanthine; for indole: metabolite indole; for inosine: metabolite inosine; for 2_3-Diphosphoglyceric acid / 4-phosphopantothenate / 6-phospho-D-gluconate / FMN / IMP / Pyrophosphate / Sedoheptoluse bisphosphate / cyclic-AMP / glutathione disulfide / lactate / myo-inositol: metabolite level change after treatment; for nicotinate: metabolite nicotinate; for ornithine: metabolite ornithine; for phosphoenolpyruvate: metabolite phosphoenolpyruvate; for pyruvate: metabolite pyruvate; for ribose-phosphate: metabolite ribose-phosphate; for sarcosine/alanine: metabolite sarcosine/alanine; for sn-glycerol-3-phosphate: metabolite sn-glycerol-3-phosphate; for succinate/methylmalonic acid: metabolite succinate/methylmalonic acid; for uridine: metabolite uridine; for xanthosine: metabolite xanthosine
PfPMT = PfPMT (Plasmodium falciparum, UniProt Q8IDQ9); assay: PfPMT gene replacement yeast growth; conditions: 100µM
Chain of PfPMT (Q8IDQ9 whole entry): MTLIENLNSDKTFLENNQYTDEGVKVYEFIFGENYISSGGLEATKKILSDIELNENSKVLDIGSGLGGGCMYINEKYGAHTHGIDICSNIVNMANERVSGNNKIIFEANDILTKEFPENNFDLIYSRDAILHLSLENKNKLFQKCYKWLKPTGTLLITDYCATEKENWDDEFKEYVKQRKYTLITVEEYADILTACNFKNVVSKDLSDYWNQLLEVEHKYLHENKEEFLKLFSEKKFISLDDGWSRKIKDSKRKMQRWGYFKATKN

[2] = tested on: NCI60 human tumor cell lines; assay: NCI60 5-dose (dose-response) assay; format: cell-based
Text: Columns IE-KK. NCI: Misra group (data presented first in this paper). NCI60 anti-tumor cell activity. Methods: […] These 60 cell lines, along with others, have been developed at NCI and have been maintained and distributed for research purposes by NCI for over 25 years. The experimental readout provides both inhibition of cell growth and cell kill. The screen was originally designed to prioritize agents for further evaluation. […] This is the same as for the 5-dose assay, described on http://dtp.cancer.gov/branches/btb/ivclsp.html. […] Testing beyond the initial screen: There were 133 compounds that passed threshold to proceed to 5-dose (dose-response) (data are available for the 133 compounds at the DTP public website (dtp.cancer.gov) by searching either the MMV number or NSC number). After examination of the 5-dose data, 10 compounds were selected for repeat testing based generally on potency, differential cell activity or activity on an individual cell lines or cell line panel. A summary of the data for the 10 compounds of interest is in the table below.

[3] = mean over cell lines of one experiment, listed as 766470/2

## CCc1ccc(Nc2cc(C)c3ccc(O)cc3n2)cc1 [MMV000570]
P. falciparum
  EC50: 194 nM
[1]
  Acetyllysine: -3.5798
  N-acetyl-L-ornithine: -2.11
  N-carbamoyl-L-aspartate: -1.956
  NADPH: 0.5669
  dAMP: 0.09919
  dCMP: -0.6377
  dTDP: 0.1581
  dTMP: 0.002348
  dTTP: -0.746
  dihydroorotate: -1.827
  orotate: -1.158
  DLH: -3.486
  DLS/SDL/SID: -2.98
  PD: -3.426
  PEE: -2.976
  PVNF: -3.666
  3-phosphoglycerate: -0.3004
  ADP-D-glucose: -0.2531
  ATP: -0.4297
  CDP: 0.1199
  D-sedoheptulose-1/7-phosphate: -0.03599
  FAD: 0.02687
  GMP: -0.7921
  NAD+: -0.005921
  NADP+: 0.04495
  Octoluse Bisphosphate: -0.7521
  Pyroglutamic acid: 0.02528
  UDP-D-glucose: -0.0202
  UDP-D-glucuronate: -0.1762
  UDP-N-acetyl-glucosamine: -0.01786
  UDP: 0.2064
  UMP: -0.3865
  UTP: -0.5565
  a-ketoglutarate: -0.893
  citrate/isocitrate: -0.9405
  cytidine: 0.2459
  dATP: 0.202
  dGMP/AMP: 0.175
  fumarate: -1.642
  glucose-1/6-phosphate: -0.09278
  glycerate: -0.2054
  guanine: -0.06952
  guanosine: -0.3954
  hypoxanthine: 0.06102
  indole: -0.08521
  inosine: -0.1832
  2_3-Diphosphoglyceric acid: -0.3845
  4-phosphopantothenate: -0.2389
  6-phospho-D-gluconate: -0.3077
  FMN: -0.01655
  IMP: -0.277
  Pyrophosphate: 0.07301
  Sedoheptoluse bisphosphate: -0.5323
  cyclic-AMP: -0.9231
  glutathione disulfide: -0.5684
  lactate: -0.3085
  myo-inositol: -0.5155
  nicotinate: 0.1664
  ornithine: -0.4755
  phosphoenolpyruvate: -0.0203
  pyruvate: 0.06241
  ribose-phosphate: -0.6825
  sarcosine/alanine: -1.674
  sn-glycerol-3-phosphate: -0.5868
  succinate/methylmalonic acid: -0.5023
  uridine: -0.4463
  xanthosine: -1.566
PfPMT
  candidate inhibitors of PfPMT activity (yeast functional assay): candidate inhibitors of PfPMT activity

## COc1ccc(-c2nc3cc(Cc4ccc5[nH]c(-c6ccc(OC)cc6)nc5c4)ccc3[nH]2)cc1 [MMV007384]
P. falciparum
  EC50: 176 nM
[2]
  Notes (NCI60 5-dose activity pattern): Colon, differential, potent
[2]; 5-dose, mean over NCI60 panel
  MGLI50 = Mean Growth Log I50: -7.34
[2]; [3]
  _MID Log10GI50: -7.42 Molar and -7.34 Molar
  _MID Log10LC50: -5.38 Molar and -5.32 Molar
  _MID Log10TGI: -6.22 Molar and -6.17 Molar
[1]
  Acetyllysine: -1.262
  N-acetyl-L-ornithine: -1.162
  N-carbamoyl-L-aspartate: -0.09766
  NADPH: -0.9181
  dAMP: 0.6855
  dCMP: 0.07883
  dTDP: 0.07329
  dTMP: 0.1259
  dTTP: -0.4561
  dihydroorotate: 0.3461
  orotate: 0.3571
  DLH: -1.971
  DLS/SDL/SID: -1.761
  PD: -1.296
  PEE: -1.3661
  PVNF: -1.589
  3-phosphoglycerate: -0.215
  ADP-D-glucose: -0.07535
  ATP: -0.4674
  CDP: -0.349
  D-sedoheptulose-1/7-phosphate: -0.5757
  FAD: -0.3245
  GMP: -0.4418
  NAD+: -0.0839
  NADP+: -0.1415
  Octoluse Bisphosphate: -0.7079
  Pyroglutamic acid: 1.1726
  UDP-D-glucose: -0.1169
  UDP-D-glucuronate: -0.3283
  UDP-N-acetyl-glucosamine: -0.1799
  UDP: -0.2172
  UMP: -0.3886
  UTP: -0.61
  a-ketoglutarate: 0.7257
  citrate/isocitrate: 1.281
  cytidine: 0.03237
  dATP: -0.2668
  dGMP/AMP: 0.1319
  fumarate: 0.03505
  glucose-1/6-phosphate: 0.02257
  glycerate: 0.3902
  guanine: 0.5342
  guanosine: 0.3398
  hypoxanthine: 1.128
  indole: 0.6274
  inosine: 0.7464
  2_3-Diphosphoglyceric acid: -0.7853
  4-phosphopantothenate: 0.02171
  6-phospho-D-gluconate: -0.4966
  FMN: -0.1132
  IMP: -0.008592
  Pyrophosphate: -0.8081
  Sedoheptoluse bisphosphate: -0.4298
  cyclic-AMP: -0.3368
  glutathione disulfide: -0.6284
  lactate: 0.4073
  myo-inositol: -0.09775
  nicotinate: 1.038
  ornithine: 0.535
  phosphoenolpyruvate: 0.008692
  pyruvate: 0.9693
  ribose-phosphate: -0.5692
  sarcosine/alanine: -0.2789
  sn-glycerol-3-phosphate: -0.4175
  succinate/methylmalonic acid: -0.1567
  uridine: 0.8329
  xanthosine: 0.2641
PfPMT
  candidate inhibitors of PfPMT activity (yeast functional assay): candidate inhibitors of PfPMT activity
